Laboratory results taken from patent US20230066946A1, “1,5-DIPHENYLPYRAZOLYL-3-OXYALKYL ACIDS AND 1-PHENYL-5-THIENYLPYRAZOLYL-3-OXYALKYL ACIDS AND THE USE THEREOF FOR CONTROL OF UNWANTED PLANT GROWTH” (Bayer Aktiengesellschaft, priority 2019, published 2023).

Columns and labels:
[1] = test system: AMARE; test: Pre-emergence herbicidal action against AMARE; type: in vivo, Amaranthus retroflexus; details: 1280 g/ha, scored visually after about 3 weeks vs untreated controls
Text: (§1) Seeds of mono- and dicotyledonous weed plants are placed in plastic pots in sandy loam soil (doubly sown with one species each of mono- or dicotyledonous weed plants per pot) and covered with soil. The compounds of the invention, formulated in the form of wettable powders (WP) or as emulsion concentrates (EC), are then applied onto the surface of the covering soil as aqueous suspension or emulsion with addition of 0.5% additive at a water application rate equivalent to 600 litres per hectare. After the treatment, the pots are placed in a greenhouse and kept under good growth conditions for the trial plants. After about 3 weeks, the effect of the preparations is scored visually in comparison with untreated controls as percentages. For example, 100% activity=the plants have died, 0% activity=like control plants. [table] Tables 4.1-4.15 below show the effects of selected compounds of the general formula (I) according to Tables 1 to 3 on various harmful plants at an application rate corresponding to 1280 or 320 g/ha, which have been obtained by the aforementioned experimental method.

[2] = test system: STEME; test: Pre-emergence herbicidal action against STEME; type: in vivo, Stellaria media; details: 1280 g/ha, scored visually after about 3 weeks vs untreated controls
Text: as §1

[3] = test system: AMARE; test: Post-emergence herbicidal action against AMARE; type: in vivo, Amaranthus retroflexus; details: 1280 g/ha, visual rating about 3 weeks after treatment
Experimental: (§2) [table] Seeds of mono- and dicotyledonous weed plants are placed in plastic pots in sandy loam soil (twin sowing with one species each of mono- or dicotyledonous weed plants per pot), covered with soil and cultivated in a greenhouse under controlled growth conditions. 2 to 3 weeks after sowing, the test plants are treated at the one-leaf stage. The compounds of the invention, formulated in the form of wettable powders (WP) or as emulsion concentrates (EC), are applied to the green parts of the plants as aqueous suspension or emulsion with addition of 0.5% additive at a water application rate equivalent to 600 litres per hectare. After the test plants have been kept in the greenhouse under optimum growth conditions for about 3 weeks, the activity of the preparations is rated visually in comparison to untreated controls. For example, 100% activity=the plants have died, 0% activity=like control plants. Tables 5.1-5.16 below show the effects of selected compounds of the general formula (I) according to Tables 1 to 3 on various harmful plants at an application rate corresponding to 1280 or 320 g/ha, which have been obtained by the aforementioned experimental method.

[4] = test system: SETVI; test: Pre-emergence herbicidal action against SETVI; type: in vivo, Setaria viridis; details: 1280 g/ha, scored visually after about 3 weeks vs untreated controls
Text: as §1

[5] = test system: STEME; test: Post-emergence herbicidal action against STEME; type: in vivo, Stellaria media; details: 1280 g/ha, visual rating about 3 weeks after treatment
Experimental: as §2

[6] = test system: MATIN; test: Post-emergence herbicidal action against MATIN; type: in vivo, Matricaria inodora; details: 1280 g/ha, visual rating about 3 weeks after treatment
Experimental: as §2

[7] = test system: SETVI; test: Post-emergence herbicidal action against SETVI; type: in vivo, Setaria viridis; details: 1280 g/ha, post-emergence at one-leaf stage, rated visually after about 3 weeks vs untreated controls
Experimental: as §2

[8] = test system: ECHCG; test: Pre-emergence herbicidal action against ECHCG; type: in vivo, Echinochloa crus-galli; details: scored visually after about 3 weeks vs untreated controls, 100% = plants have died, 0% = like control plants
Text: as §1

SMILES | Pre-emergence action against AMARE in % [1] | Pre-emergence action against STEME in % [2] | Post-emergence action against AMARE in % [3] | Pre-emergence action against SETVI in % [4] | Post-emergence action against STEME in % [5] | Post-emergence action against MATIN in % [6] | Post-emergence action against SETVI in % [7] | Pre-emergence action at 1280 g/ha against ECHCG in % [8]
CCOC(=O)COc1nn(-c2ccc(F)cc2F)c(-c2ccc(F)cc2F)c1Br [I-088] | 90% | 100% | 100% | 90% | 100% | 90% | – | –
C=CCNC(=O)COc1nn(-c2c(F)cccc2F)c(-c2ccc(F)c(F)c2)c1Cl [III-068] | 90% | 90% | – | 100% | – | 90% | 90% | 100%
O=C(COc1nn(-c2ccccc2)c(-c2ccc(F)cc2)c1Br)OCc1cccc(F)c1 [I-111] | – | 100% | 100% | 90% | 90% | 90% | – | 100%
CCOC(=O)CCNC(=O)COc1nn(-c2cccc(F)c2)c(-c2ccccc2)c1Br [III-033] | 90% | 100% | 90% | 100% | – | – | 100% | 90%
CCOC(=O)COc1nn(-c2ccc(F)cc2)c(-c2ccc(F)cc2)c1Br [I-076] | 100% | 100% | 100% | 100% | – | 90% | – | 90%
CCOC(=O)COc1nn(-c2c(F)cccc2F)c(-c2ccc(F)c(F)c2)c1Br [I-134] | 100% | 100% | 90% | 100% | 100% | – | – | 100%
COC(=O)COc1nn(-c2cccc(F)c2)c(-c2ccccc2)c1[N+](=O)[O-] [I-122] | 100% | – | – | – | – | – | – | 100%
C#CCNC(=O)COc1nn(-c2ccc(F)cc2)c(-c2cccc(F)c2)c1Cl [III-023] | 90% | 100% | – | 100% | – | – | 100% | 90%
C=CCNC(=O)COc1nn(-c2c(F)cccc2F)c(-c2ccc(F)c(F)c2)c1Br [III-054] | 90% | – | – | 90% | – | – | 100% | –
COC(=O)C(C)Oc1nn(-c2ccccc2)c(-c2ccc(F)cc2)c1Br (centres unmarked) [I-132, Methyl 2-{[4-bromo-5-(4-fluorophenyl)-1-phenyl-1H-pyrazol-3-yl]oxy}propanoate] | 100% | 100% | – | 100% | 100% | 90% | – | –
CC(Oc1nn(-c2ccccc2F)c(-c2ccc(F)c(F)c2)c1Br)C(=O)O (centres unmarked) [I-168] | 100% | 100% | – | – | 100% | 90% | – | 90%
C=C(C)CNC(=O)COc1nn(-c2ccccc2F)c(-c2ccccc2)c1Br [III-001] | – | 100% | 100% | 100% | – | – | 100% | 90%
CCOC(=O)COc1nn(-c2ccccc2)c(-c2ccc(F)cc2F)c1Br [I-085] | 100% | – | 100% | 100% | 100% | 90% | – | 100%
C=CCNC(=O)COc1nn(-c2ccccc2F)c(-c2ccc(F)c(F)c2)c1[N+](=O)[O-] [III-066] | 90% | 90% | – | 90% | – | – | 100% | –
COC(=O)C(C)Oc1nn(-c2ccccc2F)c(-c2ccc(F)c(F)c2)c1Br (centres unmarked) [I-170] | 100% | 100% | 90% | 100% | 100% | – | – | –
CCOC(=O)COc1nn(-c2ccccc2OC)c(-c2ccc(F)cc2)c1Br [I-089] | – | – | 100% | – | – | – | 100% | –
CCOC(=O)COc1nn(-c2c(F)cccc2F)c(-c2ccc(F)c(F)c2)c1Cl [I-142] | 100% | 100% | – | 100% | 100% | 90% | – | 100%
CC(C)(Oc1nn(-c2ccccc2)c(-c2ccc(F)cc2)c1Br)C(=O)O [I-140] | 90% | 100% | – | 100% | 100% | – | – | 90%
O=C(COc1nn(-c2ccccc2)c(-c2ccc(F)cc2)c1Br)NCC1CC1 [III-005] | 90% | 100% | – | 100% | – | – | – | 100%
O=C(O)COc1nn(-c2ccc(F)cc2)c(-c2cccc(F)c2)c1Br [I-119] | 100% | 100% | 100% | 100% | 90% | 90% | – | –
CCOC(=O)COc1nn(-c2ccccc2F)c(-c2ccc(F)c(F)c2)c1Br [I-133] | 100% | 100% | 90% | 100% | 100% | 90% | – | 90%
COC(=O)CCNC(=O)COc1nn(-c2ccc(F)cc2)c(-c2cccc(F)c2)c1Cl [III-026] | 90% | – | 90% | 90% | – | 90% | 100% | –
O=C(COc1nn(-c2ccc(F)cc2)c(-c2cccc(F)c2)c1Cl)NC1CC1 [III-024] | 100% | 100% | – | 100% | – | – | – | 90%
C#CCNC(=O)COc1nn(-c2ccc(F)cc2)c(-c2cccc(F)c2)c1Br [III-016] | 100% | 100% | 90% | 100% | – | – | – | 100%
CCOC(=O)COc1nn(-c2ccccc2F)c(-c2ccc(F)c(F)c2)c1Cl [I-131] | 100% | – | – | 100% | 90% | 90% | – | 100%
COC(=O)COc1nn(-c2cccc(F)c2)c(-c2ccccc2)c1Br [I-114] | 100% | 100% | 100% | 100% | – | 90% | – | 90%
